Data taken from patent US20080293679A1, “Use of carotenoids and/or carotenoid derivatives/analogs for reduction/inhibition of certain negative effects of COX inhibitors” (priority 2005, published 2008).
Marks after values point to notes of the source that are not given here.

Legend:
human LDL = assay: MDA formation (TBARS) in isolated human LDL; assay type: biochemical; conditions: for MDA level in LDL samples: 1 μM, vehicle 3.23±0.28 μM
Description: The effects of the compounds on lipid peroxidation were tested in isolated human LDL. Human venous blood was collected into vacutainer tubes containing K3EDTA after a 12-hour fast. Plasma was immediately separated by centrifugation at 3000 g for 25 minutes. LDL was obtained from plasma by ultracentrifugation using a procedure similar to that reported by Chung et al, 1986 using discontinuous KBr gradient. The purity of the freshly isolated LDL was assessed by SDS-PAGE using the procedure of Laemmli, 1970.
The extent of oxidation was measured for the LDL in the absence and presence of the drugs over a range of concentrations. Malondialdehyde (MDA), a product of lipid oxidation, was measured by the reaction of this aldehyde with thiobarbituric acid in an acid medium to form a stable chromogen, referred to as thiobarbituric-acid-reactive-substances (TBARS). Purified LDL (100 μg protein/ml) was incubated for 30 minutes with either vehicle or an NSAID at various concentrations followed by addition of 50 μM CuSO4 at 37° C. Conjugated diene formation was measured by continuously monitoring the change in absorbance at 234 nm on a Beckman DU 640 spectrophotometer, as described by Esterbauer et al., 1985. Stock solutions were tested for iron contamination, which can contribute independently to lipid peroxidation and assay artifacts.

[1] = F2-isoprostane formation from DAPC lipid vesicles by GC/NCI-MS; assay type: biochemical
Description: F2-Isoprostanes are derived principally from the formation of positioned peroxyl radical isomers of arachidonic acid, endocyclization to protaglandin G2-like structures, and reduction to PGF2-like compounds. Total levels of F2-isoprostanes, in DAPC lipid vesicles prepared in the presence of vehicle or drug, were measured by GC-MS with negative chemical ionization as described by Walter et al., 2000. Peroxidation of lipids occurred over time in the absence of any exogenous initiators at 37° C. F2-Isoprostane formation was also measured independently using mass spectroscopy in a blinded study at the Antioxidant Research Laboratory, Tufts University, Boston, Mass.

[2] = tested on: superoxide anion generation from phorbol-ester (PMA)-stimulated PMNs; assay: Direct superoxide anion scavenging by EPR spectroscopy (DEPMPO spin trap), isolated human neutrophil assay; assay type: cell-based
Description: Leukocyte Isolation and Preparation. Human polymorphonuclear leukocytes (PMNs) were isolated from freshly sampled venous blood of a single volunteer by Percoll density gradient centrifugation as described previously. Briefly, each 10 mL of whole blood was mixed with 0.8 mL of 0.1 M EDTA and 25 mL of saline. The diluted blood was then layered over 9 mL of Percoll at a specific density of 1.080 g/mL. After centrifugation at 400×g for 20 min at 20° C., the plasma, mononuclear cell, and Percoll layers were removed. Erythrocytes were subsequently lysed by addition of 18 mL of ice-cold water for 30 s, followed by 2 mL of 10×PIPES buffer (25 mM PIPES, 110 mM NaCl, and 5 mM KCl, titrated to pH 7.4 with NaOH). Cells were then pelleted at 4° C., the supernatant was decanted, and the procedure was repeated. After the second hypotonic cell lysis, cells were washed twice with PAG buffer [PIPES buffer containing 0.003% human serum albumin (HSA) and 0.1% glucose]. Afterward, PMNs were counted by light microscopy on a hemocytometer. The isolation yielded PMNs with a purity of >95%. The final pellet was then suspended in PAG-CM buffer (PAG buffer with 1 mM CaCl2 and 1 mM MgCl2).
EPR Measurements. All EPR measurements were performed using a Bruker ER 300 EPR spectrometer operating at X-band with a TM110 cavity as previously described. The microwave frequency was measured with a Model 575 microwave counter (EIP Microwave, Inc., San Jose, Calif.). To measure superoxide anion ? generation from phorbol-ester (PMA)-stimulated PMNs, EPR spin-trapping studies were performed using the spin trap DEPMPO (Oxis, Portland, Oreg.) at 10 mM. 1×10^6 PMNs were stimulated with PMA (1 ng/mL) and loaded into capillary tubes for EPR measurements. To determine the radical scavenging ability of 3 and 9 in aqueous and ethanolic formulations, PMNs were pre-incubated for 5 minutes with test compound, followed by PMA stimulation.
Instrument settings used in the spin-trapping experiments were as follows: modulation amplitude, 0.32 G; time constant, 0.16 s; scan time, 60 s; modulation frequency, 100 kHz; microwave power, 20 milliwatts; and microwave frequency, 9.76 GHz. The samples were placed in a quartz EPR flat cell, and spectra were recorded. The component signals in the spectra were identified and quantified as reported previously.

[3] = Lipid peroxide levels in DLPC multilamellar vesicles, C/P 0.2 (triiodide assay); assay type: biochemical; conditions: for Lipid Peroxide Levels: mean ± S.D.
Description: The levels of lipid peroxide formation were measured photometrically at specific time points. […] Samples were prepared in a glass test tube as described in the table above. […] Sample tubes were vortexed for 3 min to form MLVs. This assay is based on the principle of the oxidative capacity of lipid peroxides to convert […], which can be measured photometrically at […] (El-Saadani et al., 1989). […] Samples were placed in a water bath set at 37° C. Samples remained in the water bath throughout the experiment except for the temporary removal for time point extractions. • 2. […] • 3. After combining sample time point aliquots with CHOD active reagent and the diffraction buffer as described in the table above, test samples were incubated about 6 hours in darkness at ambient temperature. • 4. The absorbance ([…] nm) of the samples was measured using a spectrophotometer. • 5. […] This value was determined by adding known concentrations of I2 to the CHOD reagent. A stoichiometric relationship (slope=1.02) was observed between the amount of organic peroxides assayed and the concentration of I3^- produced.

[4] = Peroxidation study in DLPC multilamellar vesicles, C/P 0.6; assay type: biochemical; conditions: C/P 0.6, carotenoid 10 μM, 48 hour
Description: 1. Samples were prepared in a glass test tube as described in the table above. This gives a cholesterol/DLPC mole ratio of 0.6 and a final concentration of 10 μM for the carotenoids. Equal volumes of vehicle (20 μl chloroform) were added to control samples. 2. All samples were dried down under a steady stream of nitrogen gas while vortexing. 3. Samples were placed in a vacuum desiccator for 2 hours to remove residual solvent and protected from light. 4. Multi-lamellar vesicles (MLVs) were prepared by the method developed by Bangham and Standish (1965). After samples were removed from the vacuum desiccator, they were immediately resuspended in 1 ml of diffraction buffer warmed to room temperature and vortexed for 3 minutes to form MLVs.
This assay is based on the principle of the oxidative capacity of lipid peroxides to convert I2 to I3^− (triiodide), which can be measured photometrically at 365 nm (el-Saadani et al., 1989). This assay is sensitive to peroxide concentrations as low as 10 μM.
1. Samples were placed in a water bath set at 37° C. throughout the experiment. 2. Aliquots of a sample (20 μl) were extracted at a 48 hour time point as described in the table below.
3. After combining the samples with CHOD active reagent and the diffraction buffer, test samples were incubated for about 6 hours in darkness at ambient temperature. 4. The absorbance of a sample was measured photometrically at 365 nm.
Concentrations of lipid peroxides were calculated by the use of the molar absorptivity of I3^− measured at 365 nm (ε=2.46±0.25×10^4M^−1 cm^−1). This value was determined by adding known concentrations of […] to the CHOD reagent. A stoichiometric relationship (slope=1.02) was observed between the amount of organic peroxides assayed and the concentration of I3^− produced.

[5] = Oxygen Radical Absorption Capacity (ORAC) of human plasma; assay type: biochemical; conditions: 10.0 μM (highest concentration tested); vehicle 28.1±1.2
Description: The comparative effect of COX-2 selective agents on the antioxidant capacity of human plasma was assessed using the Oxygen Radical Absorption Capacity (ORAC) assay. This assay was carried out according to the method of Huang et al., 2002 with fresh plasma using a microplate fluorescence reader in 96 well format with the excitation and emission filters set at 485 and 530 nm respectively.

[6] = cited from earlier work
[7] = 24 Hour, carotenoid 1 μM, control 218 ± 20
[8] = 24 Hour, carotenoid 10 μM, control 218 ± 20
[9] = 48 Hour, carotenoid 1 μM, control 572 ± 76
[10] = 48 Hour, carotenoid 10 μM, control 572 ± 76

Row | Compound | % increase (+) or decrease (−) of lipid peroxide levels compared to control ([3]; 24 Hour, carotenoid 1 μM) | Lipid Peroxide Levels [3, 7] | % increase (+) or decrease (−) of lipid peroxide levels compared to control ([3]; 24 Hour, carotenoid 10 μM) | Lipid Peroxide Levels [3, 8] | % increase (+) or decrease (−) of lipid peroxide levels compared to control ([3]; 48 Hour, carotenoid 1 μM) | Lipid Peroxide Levels [3, 9] | % increase (+) or decrease (−) of lipid peroxide levels compared to control ([3]; 48 Hour, carotenoid 10 μM) | Lipid Peroxide Levels [3, 10] | further results
1 | Cc1ccc(-c2ncc(Cl)cc2-c2ccc(S(C)(=O)=O)cc2)cn1 [etoricoxib] |  |  |  |  |  |  |  |  | effect on MDA levels (TBARS) in human LDL (human LDL): marked increases; Levels of isoprostanes ([1]; 100 nM, vehicle 140±25 ng/100 μl, mean ± S.D.): 224±22 ng/100 μl
2 | CS(=O)(=O)c1ccccc1 [methyl phenyl sulfone] |  |  |  |  |  |  |  |  | MDA level in LDL samples (human LDL): 3.25 ± 0.13 µM
3 | 3,3′-Diphosphoryloxy-β,ε-carotene sodium salt [Lutein Diphosphate Sodium Salt] |  |  |  |  |  |  |  |  | Mean (% inhibition) of superoxide anion signal ([2]; 40% EtOH, 0.1 mM): 18%; Mean (% inhibition) of superoxide anion signal ([2]; Water, 0.1 mM, listed as disodium diphosphate derivative of natural source lutein, sodium salt): 0%; Mean (% inhibition) of superoxide anion signal ([2]; Water, 0.1 mM, sodium salt): no inhibition; Mean (% inhibition) of superoxide anion signal ([2]; Water, 1.0 mM): 9.3%; Mean (% inhibition) of superoxide anion signal ([2]; Water, 3.0 mM): 72.3%; Mean (% inhibition) of superoxide anion signal ([2]; Water, 5.0 mM, listed as disodium diphosphate derivative of natural source lutein, sodium salt): more than 90%; Mean (% inhibition) of superoxide anion signal ([2]; Water, 5.0 mM, sodium salt): 91.0%
4 | CC1=C(/C=C/C(C)=C/C=C/C(C)=C/C=C/C=C(C)/C=C/C=C(C)/C=C/C2=C(C)C[C@@H](O)CC2(C)C)C(C)(C)C[C@H](O)C1 [Zeaxanthin] | +10.6%^a | 241 ± 12 µM | −0.5%^a | 217 ± 7 µM | +5.8%^a | 605 ± 26 µM | +20.6%^a | 690 ± 24 µM | 
5 | CC1=C(/C=C/C(C)=C/C=C/C(C)=C/C=C/C=C(C)/C=C/C=C(C)/C=C/C2=C(C)CCCC2(C)C)C(C)(C)CCC1 [β-Carotene] | +24.8%^a | 272 ± 10 µM | +69.3%^a | 369 ± 17 µM | +40.4%^a | 803 ± 99 µM | +86.7%^a | 1068 ± 82 µM | antioxidant/prooxidant activity [4]: prooxidant activity
6 | CS(C)(=O)=O [dimethyl sulfone] |  |  |  |  |  |  |  |  | MDA level in LDL samples (human LDL): 3.32 ± 0.19 µM
7 | CC1=CC(O)CC(C)(C)C1/C=C/C(C)=C/C=C/C(C)=C/C=C/C=C(C)/C=C/C=C(C)/C=C/C1=C(C)CC(O)CC1(C)C (stereo not drawn) [Lutein, β,ε-carotene-3,3′-diol] | +15.6%^a | 252 ± 11 µM | +0.9%^a | 220 ± 8 µM | +13.5%^a | 649 ± 73 µM | +17.7%^a | 673 ± 69 µM | 
8 | CC(C)=CCC/C(C)=C/C=C/C(C)=C/C=C/C(C)=C/C=C/C=C(C)/C=C/C=C(C)/C=C/C=C(\C)CCC=C(C)C [Lycopene] | +9.6%^a | 239 ± 2 µM | +85.8%^a | 405 ± 32 µM | +13.1%^a | 647 ± 61 µM | +119.1%^a | 1253 ± 55 µM | antioxidant/prooxidant activity [4]: highest prooxidant activity
9 | Cc1ccc(-c2cc(C(F)(F)F)nn2-c2ccc(S(N)(=O)=O)cc2)cc1 [celecoxib] |  |  |  |  |  |  |  |  | effect on peroxidation of arachidonic acid-enriched vesicles ([1]; even at higher concentrations (data not shown)): no significant effect; ORAC value (AUC) [5]: 28.5±0.1; maximum plasma concentration (Cmax) ([6]; approved 200 mg dose): 705 ng/mL; volume of distribution ([6]; in vivo): 400 L; Cmax ([6]; read-out: maximum plasma concentration (Cmax), approved 200 mg dose): 1850 nM
